Test results as given in PubChem BioAssay AID330 (DTP/NCI, 2004).
Several values for one entry are separate records, joined by “and”; a condition that tells them apart may be missing. Equal values may be shown once. Inconclusive results and toxic doses are left out.

System: P388 leukemia ip, CD2F1 mice, survival T/C
Assay: NCI In Vivo Anticancer Drug Screen. Data for tumor model P388 Leukemia (intraperitoneal) in CD2F1 (CDF1) mice
Settings: endpoint: median survival time, higher = longer survival
In short: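 Mice carrying the transplanted tumor received test compound or vehicle. Survival was recorded in each group, and the value is the treated-group measurement divided by that of the vehicle-treated control group.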

[1] = dose: 60.0 mg/kg/injection, schedule: Q01DX005 (ip), vehicle: saline with Tween-80
[2] = dose: 120.0 mg/kg/injection, schedule: Q01DX005 (ip), vehicle: saline with Tween-80
[3] = dose: 240.0 mg/kg/injection, schedule: Q01DX005 (ip), vehicle: saline with Tween-80

With `CCOC1=NC(C)C(C)N1` (stereo unspecified) the T/C (dose: 25.0 mg/kg/injection, schedule: Q01DX001 (ip), vehicle: saline) was 101 % of control, the T/C (dose: 50.0 mg/kg/injection, schedule: Q01DX001 (ip), vehicle: saline) was 101 % of control and the T/C (dose: 100.0 mg/kg/injection, schedule: Q01DX001 (ip), vehicle: saline) was 108 % of control and 97 % of control.
For `CSc1nc(N)c(C#N)c(SC)c1C#N`, the T/C (dose: 50.0 mg/kg/injection, schedule: Q04DX003 (ip), vehicle: saline) was 98 % of control, the T/C (dose: 100.0 mg/kg/injection, schedule: Q04DX003 (ip), vehicle: saline) was 112 % of control and the T/C (dose: 200.0 mg/kg/injection, schedule: Q04DX003 (ip), vehicle: saline) was 101 % of control.
For `O=C(/C=C/c1ccccc1)/C=C/c1ccccc1` (tested in a mixture with another compound), the T/C [1] was 98 % of control, the T/C [2] was 91 % of control and the T/C [3] was 91 % of control.
For `CCCCCCCCCCCCCOC(=O)CC(C(=O)OCCCCCCCCCCCCC)S(=O)(=O)O` (stereo unspecified), the T/C (dose: 50.0 mg/kg/injection, schedule: Q01DX009 (ip), vehicle: Klucel (hydroxypropylcellulose) (HPC)) was 99 % of control and the T/C (dose: 100.0 mg/kg/injection, schedule: Q01DX009 (ip), vehicle: Klucel (hydroxypropylcellulose) (HPC)) was 95 % of control.
With `NC(=S)N/N=C/c1c(-c2ccc(Cl)cc2)nc2sccn12` the T/C (dose: 100.0 mg/kg/injection, schedule: Q01DX001 (ip), vehicle: Klucel (hydroxypropylcellulose) (HPC)) was 96 % of control, the T/C (dose: 200.0 mg/kg/injection, schedule: Q01DX001 (ip), vehicle: Klucel (hydroxypropylcellulose) (HPC)) was 95 % of control and the T/C (dose: 400.0 mg/kg/injection, schedule: Q01DX001 (ip), vehicle: Klucel (hydroxypropylcellulose) (HPC)) was 96 % of control.
For `Cn1c(N=P(c2ccccc2)(c2ccccc2)c2ccccc2)cc(=O)n(C)c1=O`, the T/C (dose: 60.0 mg/kg/injection, schedule: Q01DX005 (ip), vehicle: Klucel (hydroxypropylcellulose) (HPC)) was 101 % of control, the T/C (dose: 120.0 mg/kg/injection, schedule: Q01DX005 (ip), vehicle: Klucel (hydroxypropylcellulose) (HPC)) was 102 % of control and the T/C (dose: 240.0 mg/kg/injection, schedule: Q01DX005 (ip), vehicle: Klucel (hydroxypropylcellulose) (HPC)) was 101 % of control.
For `Cc1c(N=O)c(-c2ccccc2)n(O)[n+]1[O-]`, the T/C [1] was 102 % of control, the T/C [2] was 101 % of control and the T/C [3] was 102 % of control.
With `Nc1ccc(C(=O)CC(O)(C(F)(F)F)C(F)(F)F)cc1` the T/C (dose: 75.0 mg/kg/injection, schedule: Q04DX003 (ip), vehicle: saline with Tween-80) was 95 % of control, the T/C (dose: 150.0 mg/kg/injection, schedule: Q04DX003 (ip), vehicle: saline with Tween-80) was 95 % of control and the T/C (dose: 300.0 mg/kg/injection, schedule: Q04DX003 (ip), vehicle: saline with Tween-80) was 100 % of control.
`Nc1cc2c(c[n+](CCCCCCCCCC[n+]3cc4c5ccccc5c(N)cc4c4ccccc43)c3ccccc23)c2ccccc12` was tested, and the T/C (dose: 0.78 mg/kg/injection, schedule: Q04DX003 (ip), vehicle: other) was 118 % of control, the T/C (dose: 12.5 mg/kg/injection, schedule: Q04DX003 (ip), vehicle: distilled water + Tween-80) was 166 % of control and the T/C (dose: 25.0 mg/kg/injection, schedule: Q04DX003 (ip), vehicle: distilled water + Tween-80) was 159 % of control. The T/C (dose: 25.0 mg/kg/injection, schedule: Q04DX003 (ip), vehicle: other) was 160 % of control and 166 % of control, the T/C (dose: 50.0 mg/kg/injection, schedule: Q04DX003 (ip), vehicle: distilled water + Tween-80) was 165 % of control and the T/C (dose: 50.0 mg/kg/injection, schedule: Q04DX003 (ip), vehicle: other) was 157 % of control and 160 % of control. The T/C (dose: 100.0 mg/kg/injection, schedule: Q04DX003 (ip), vehicle: distilled water + Tween-80) was 161 % of control, the T/C (dose: 200.0 mg/kg/injection, schedule: Q04DX003 (ip), vehicle: distilled water + Tween-80) was 161 % of control and the T/C (dose: 200.0 mg/kg/injection, schedule: Q04DX003 (ip), vehicle: other) was 169 % of control. The T/C (dose: 400.0 mg/kg/injection, schedule: Q04DX003 (ip), vehicle: distilled water + Tween-80) was 175 % of control.
In the case of `CC(=O)/C=C(\C)Nc1ccccc1`, the T/C (dose: 12.5 mg/kg/injection, schedule: Q01DX009 (ip), vehicle: saline) is reported as 106 % of control, the T/C (dose: 25.0 mg/kg/injection, schedule: Q01DX009 (ip), vehicle: saline) is reported as 102 % of control and the T/C (dose: 50.0 mg/kg/injection, schedule: Q01DX009 (ip), vehicle: saline) is reported as 91 % of control and 97 % of control. For the same molecule, the T/C (dose: 200.0 mg/kg/injection, schedule: Q01DX009 (ip), vehicle: saline) was 97 % of control.
For `CC(C)c1cc(O)c2c(c1O)C1CC3C(C)(C)CCC[C@]23C(=O)O1` (stereo partly specified), the T/C (dose: 4.88 mg/kg/injection, schedule: Q01DX005 (ip), vehicle: Klucel (hydroxypropylcellulose) (HPC)) was 95 % of control, the T/C (dose: 9.75 mg/kg/injection, schedule: Q01DX005 (ip), vehicle: Klucel (hydroxypropylcellulose) (HPC)) was 100 % of control and the T/C (dose: 19.5 mg/kg/injection, schedule: Q01DX005 (ip), vehicle: Klucel (hydroxypropylcellulose) (HPC)) was 100 % of control. The T/C (dose: 39.0 mg/kg/injection, schedule: Q01DX005 (ip), vehicle: Klucel (hydroxypropylcellulose) (HPC)) was 96 % of control.
